Values joined by “and” are separate entries in the source; they are usually repeats but may differ in a detail not shown here. Equal values may be shown once.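 Results reflect a 48-hour exposure of cells in 96-well plates to compound at five concentrations. Abbreviation: GI50, concentration required for 50% inhibition of growth. TGI: concentration producing complete growth inhibition.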
Tests used:
Experiment in all cases: NCI-60 cell line screen, 48 h
A549 NSCLC = tested on: A549 NSCLC
KM12 colon = tested on: KM12 colon
CAKI-1 renal = tested on: CAKI-1 renal
OVCAR-5 ovarian = tested on: OVCAR-5 ovarian
HCT-15 colon = tested on: HCT-15 colon
OVCAR-4 ovarian = tested on: OVCAR-4 ovarian
MDA-MB-231 breast = tested on: MDA-MB-231 breast
786-0 renal = tested on: 786-0 renal
EKVX NSCLC = tested on: EKVX NSCLC
PC-3 prostate = tested on: PC-3 prostate

Row | Compound | TGI (A549 NSCLC) [µM] | TGI (KM12 colon) [µM] | TGI (CAKI-1 renal) | TGI (OVCAR-5 ovarian) [µM] | TGI (HCT-15 colon) [µM] | TGI (OVCAR-4 ovarian) [µM] | TGI (MDA-MB-231 breast) | TGI (786-0 renal) [µM] | TGI (EKVX NSCLC) | TGI (PC-3 prostate) [µM] | GI50 (A549 NSCLC) | GI50 (KM12 colon) | GI50 (CAKI-1 renal) | GI50 (OVCAR-5 ovarian) | GI50 (HCT-15 colon) | GI50 (OVCAR-4 ovarian) | GI50 (MDA-MB-231 breast) | GI50 (786-0 renal) | GI50 (EKVX NSCLC) | GI50 (PC-3 prostate)
1 | NCCC(=O)NC(Cc1cnc[nH]1)C(=O)O (centres undefined) | > 100 | > 100 | > 100 µM | > 100 | > 100 | > 100 | > 100 µM | > 100 | > 100 µM | > 100 |  |  |  |  |  |  |  |  |  | 
2 | O=C1CSC(c2ccccc2O)N1c1nnc(Cn2ccnc2)o1 (centres undefined) | > 100 | > 100 | 10.2 µM | 50.7 | > 100 | 37.2 | 71.4 µM | > 100 | 20 µM | 30.4 | 35.5 µM | 5.16 µM | 2.19 µM | 22.1 µM | 3.04 µM | 4.51 µM | 6.25 µM | 7.8 µM | 3.5 µM | 6.2 µM
3 | Cc1ccc(Sc2oc(-c3ccc(C)cc3)nc2[P+](c2ccccc2)(c2ccccc2)c2ccccc2)cc1 | 1.24 | 1.3 | 1.06 µM | 1.59 | 1.26 | 1.43 | 1.03 µM | 1.65 | 1.26 µM | 1.34 | 0.305 µM | 0.338 µM | 0.283 µM | 0.416 µM | 0.31 µM | 0.28 µM | 0.28 µM | 0.379 µM | 0.296 µM | 0.305 µM
4 | Nc1n[nH]c(N)c1N=Nc1ccc(O)cc1 | > 100 | 74.1 | 63.9 µM | > 100 | 90.6 | 74.7 | 82.8 µM | > 100 | 67.8 µM | > 100 | 22.5 µM | 17.2 µM | 14.7 µM | 23.5 µM | 24.2 µM | 19 µM | 16.8 µM | 26.3 µM | 22 µM | 20.3 µM
5 | COc1cc2c(cc1-c1coc3cc(OCC=C(C)C)ccc3c1=O)OCO2 | > 100 | 52.4 | 58.5 µM | > 100 | 32.8 | > 100 | 65.6 µM | 61.8 | > 100 µM | > 100 |  |  |  |  |  |  |  |  |  | 
6 | COc1cc2c(c(OC)c1OC)-c1c(cc3c(c1OC)OCO3)CC(C)C(C)(O)C2OC(=O)c1ccccc1 (centres undefined) | > 100 | > 100 | > 100 µM | > 100 | > 100 | > 100 | 57.8 µM | > 100 | > 100 µM | > 100 |  |  |  |  |  |  |  |  |  | 
7 | C[C@@H]1COCCN1c1cc(-c2ccnn2C)c2ccnc(-c3ccn[nH]3)c2n1 |  | > 100 | 0.9 µM and 1.8 µM | > 100 | > 100 | 1.74 | 10.7 µM and > 69.9 µM | 0.483 | 8.11 µM and > 28.6 µM | > 100 | 0.0623 µM and 0.19 µM | 0.176 µM and 0.171 µM | 0.125 µM and 0.223 µM | 0.103 µM and 0.193 µM | 0.0344 µM and 0.0968 µM | 0.109 µM and 0.181 µM | 0.223 µM and 0.386 µM | 0.0406 µM and 0.079 µM | 0.205 µM and 0.349 µM | 0.275 µM and 0.454 µM
8 | CCN(C(=O)CN1CCN(c2cc3c(cc2F)c(=O)c(C(=O)O)cn3CC)CC1)c1nc(-c2ccccc2)cs1 | > 100 | > 100 | > 100 µM | > 100 | > 100 | > 100 | > 100 µM | > 100 | > 100 µM | > 100 | 0.365 µM | 0.393 µM | 0.312 µM | 0.505 µM | 0.356 µM | 0.347 µM | 0.442 µM | 0.384 µM | 0.372 µM | 0.362 µM
9 | CCN(CC)C(=O)COc1cc2c(O)c3c(O)c(C)c4c(c13)C(=O)C(C)(OC=CC(OC)C(C)C(OC(C)=O)C(C)C(O)C(C)C(O)C(C)C=CC=C(C)C(=O)N2)O4 (centres undefined) | > 100 | > 100 | > 100 µM | > 100 | > 100 | > 100 | > 100 µM | > 100 | > 100 µM | > 100 |  |  |  |  |  |  |  |  |  | 
10 | O=C1/C(=C/c2cccc(Br)c2)COc2ccc(O)c(O)c21 | 4.82 | 3.64 | 2.47 µM | 3.74 | 3.88 | 2.85 | 3.35 µM | 4.1 | 3.52 µM | 3.45 | 1.83 µM | 1.48 µM | 1.21 µM | 1.93 µM | 0.866 µM | 1.51 µM | 1.4 µM | 1.46 µM | 1.78 µM | 0.79 µM
11 | CCSc1nc(N)c(C#N)c(-c2ccco2)c1C#N | > 100 | > 100 | 67.6 µM | > 100 | > 100 | > 100 | > 100 µM | > 100 | > 100 µM | > 100 | 41.4 µM | 27.4 µM | 13.7 µM | > 100 µM | 28.4 µM | > 100 µM | > 100 µM | 39.6 µM | 25.4 µM | 22.3 µM
12 | Brc1cccc(-c2cc(-c3ccc4nccnc4c3)[nH]n2)c1 | > 250 | > 94.7 | > 250 µM | > 250 | > 250 | > 250 | 23.7 µM | > 250 | > 250 µM | > 250 | 0.86 µM | 0.153 µM | 0.599 µM | 2.64 µM | 0.165 µM | 2.05 µM | 2.94 µM | 1.66 µM | 4.24 µM | 0.68 µM
13 | CC1=C(C(=O)Nc2ccc(F)c(Cl)c2)C(c2ccccc2O)NC(=O)N1 (centres undefined) | > 100 | > 100 | > 100 µM | > 100 | > 100 | 68.6 | > 100 µM | > 100 | > 100 µM | > 100 | > 100 µM | 70.9 µM | > 100 µM | > 100 µM | > 100 µM | 12.2 µM | 27.4 µM | > 100 µM | > 100 µM | 58.8 µM
14 | Cn1nnc2c(C(N)=O)ncn2c1=O | > 100 | > 100 | > 100 µM | > 100 | > 100 | > 100 | > 100 µM | > 100 | > 100 µM | > 100 |  |  |  |  |  |  |  |  |  | 

— PubChem BioAssay (NCI)
